Assay results reported in patent publication US20070248672A1, “Indole and Azaindole Derivatives with Antitumor Action” (priority 2004, published 2007).
“Also recorded” adds a separate entry of the source. Where two headings read alike, the source gives them in different places.

Legend:
[1] = target: Vacuolar ATPase in human osteoclastoma (hOc) (Homo sapiens, UniProt P27449+Q13488); test: Vacuolar ATPase inhibition in human osteoclastoma (hOc) microsomal fraction; assay type: biochemical; conditions: 30 min, 37° C.
Protocol: 1.1 Determination of Vacuolar ATpase Inhibition in Human Osteoclastoma (hOc)
Osteoclast-like giant cells isolated from human osteoclastoma are homogenized using a glass-teflon homogeniser (1000 rpm) and the material is centrifuged for 20 minutes at 6000 g. The resultant pellet is resuspended and centrifuged at 100000 g for 60 minutes to sediment the microsomal fraction. The resultant pellet is resuspended in medium at pH 7.4 and stored under liquid nitrogen.
(§1) Inhibition of bafilomycin sensitive ATPase activity is assayed by measuring the release of inorganic phosphate during 30 minutes of incubation, at 37° C., of the human osteoclastoma microsomal fraction in 96-well plates. The reaction medium contains 1 mM ATP, 10 mM Hepes-Tris buffer pH 8, 50 mM KCl, 5 μM valinomycin, 5 μM nigericin, 1 mM CDTA-Tris, 100 μM ammonium molybdate, 0.2 M sucrose and the microsomal fraction (20 μg protein/ml). The reaction is initiated by adding MgSO4 and terminated, after 30 minutes, by adding 4 volumes of the reagent malachite green, prepared according to Chan K., Anal. Biochem. 157, 375-380, 1986.

[2] = target: Vacuolar ATPase in bovine chromaffin cells membranes (BCG) (Bos taurus, UniProt P23956+Q29466); test: Vacuolar ATPase inhibition in bovine chromaffin cells membranes (BCG); assay type: biochemical; conditions: read-out: ATPase activity (IC50) BCG; bovine chromaffin cell membranes
Protocol: as §1
1.2 Determination of Vacuolar ATpase Inhibition in the Bovine Chromaffin Cells Membranes (BCG)
About 20 adrenal glands (Cidon S., J. Biol. Chem. 258, 2892-2898, 1983) are removed from healthy bovines; the medulla is quickly separated from the cortex, which is discarded. The medulla is homogenised at 4° C. with a suitable medium at pH 7.5, then filtered. The remaining solid material is further homogenised, filtered and recombined with the preceding filtrate, resuspended and centrifuged at 1000 g for 15 minutes; the supernatant obtained is centrifuged at 10000 g for 20 minutes. The resultant pellet is resuspended and stratified through a sucrose gradient formed of a lower part of 15 ml 1.5 M sucrose and an upper part of 10 ml 1.2 M sucrose. After overnight centrifugation at 4° C. with a SW28 rotor at 20000 rpm, the chromaffiln cells sediment into a pellet. This latter is resuspended, centrifuged at 3000 g for 10 minutes, and the supernatant obtained is centrifuged at 200000 g for 60 minutes. The pellet is then resuspended in 4 ml of a suitable medium containing 0.2 μg/ml pepstatin A and 0.4 μg/ml leupeptin and stored under liquid nitrogen.
The method for ATPase inhibition assay is the same as that followed for the osteoclastoma.

HT29 cells [3] = test: Antiproliferative activity, 72 h treatment, SRB assay, HT29; assay type: cell-based, human; conditions: Homo sapiens
Protocol: HT29 and HT29/Mit (line obtained by prolonged exposure to mitoxantrone, and characterised by overexpression of BCRP, which confers cross resistance to topotecan, irinotecan and to its metabolite SN38): maintained in McCoy 5A medium+10% FCS.
2.2 Scheme of the Antiproliferative Activity Experiment (Treatment Time: 72 Hours)
(§2) The cells (HT29 and HT29/Mit: 40,000 cells/ml, LoVo, LoVo/Dx and HCT116: 50,000 cells/ml) are seeded in 100 μl of the respective culture media in 96-well plates. 24 hours after seeding, an aliquot (10 μl) of drug at the various concentrations is added. In the samples in which the effect of the combination of two compounds is to be tested the inhibitor is added immediately before the cytotoxic. For each dose or combination of doses/drugs the effect of the treatment is determined in 4-8 replicates.
(§3) After 72 hours of treatment the antiproliferative effect is evaluated using the sulforhodamine B (SRB) assay: the cells are fixed by adding 25 μl of 50% TCA to each well and left for 1 hour at 4° C. After washing them with water and allowing them to dry, 100 μl of 0.4% SRB in 1% acetic acid are added and left for 30 minutes at room temperature. After 4 washes in 1% acetic acid, they are left to dry then the dye fixed by the proteins is dissolved under basic conditions with 100 μl 10 mM cold Tris and the solution is read using a spectrophotometer at 550 nm.
(§4) Percentage cell growth is calculated as the optical density of treated samples compared to the optical density of controls (untreated cells).

HepG2 cells = test: Antiproliferative activity, 48 h treatment, ATPlite luminescence assay, HepG2; assay type: cell-based, human; conditions: Homo sapiens; HepG2, 48 h treatment; read-out: Antiproliferative activity (IC50 ± S.D.) HepG2 48 h treatment
Protocol: HepG2: maintained in EMEM medium+10% FCS.
2.3 Scheme of the Antiproliferative Activity Experiment (Treatment Time: 48 Hours)
The cells (concentration: 30,000 cells/ml) are seeded in 90 μl of the respective culture media in 96-well plates. 24 hours after seeding, an aliquot (10 μl) of the drug at the various concentrations is added (for each concentration there are 3 replicates). After 48 hours of treatment the antiproliferative effect is evaluated with a luminescence assay (Perkin Elmer Life Sciences ATPlite):
50 μl of a lysis solution are added to each well followed by an equal volume of a solution containing luciferase and D-luciferin. The ATP present in all the metabolically active cells brings about the transformation reaction of D-luciferin, catalysed by luciferase, to produce a luminescent signal as described in the following scheme: ATP+D-luciferin+O2→Oxyluciferin+AMP+PP1+CO2+Light
The luminescence produced (expressed in counts per second, CPS) is measured by means of a microplate scintillation analyzer (Perkin Elmer Life Sciences Top Count).
Percentage inhibition of luminescence in the treated cells compared to the control is calculated; concentration-response curves are then analysed using Grafit v.5.0.

HT29 cells [4] = test: Co-treatment with topotecan, HT29 cells (Combination Index according to Kern); assay type: cell-based, human; conditions: HT29; compound at 4 μM (3 experiments) and 8 μM (2 experiments), subtoxic doses
Protocol: as §2, §3, §4
(§5) The Combination Index (C.I.) was determined according to Kern's method, 1988 (who continued from Drewinko B, 1976) (Kem D. H., Cancer Res. 48, 117-121, 1988; Drewinko B., Cancer Biochem. Biophys. 1, 187-195, 1976) by means of the following formula: […], where SFa and SFb are the fractions of cells surviving to treatment with compound a and b, respectively; SFab is the fraction surviving to the combination of compounds a and b. If the result is =1, the interaction between the two compounds is additive; if it is >1, the interaction between the two compounds is synergistic; if it is <1, the interaction between the two compounds is antagonistic.

HT29/Mit cells = test: Co-treatment with topotecan, HT29/Mit resistant cells (Combination Index according to Kern); assay type: cell-based, human; conditions: HT29/Mit; compound at non-toxic concentrations 0.01-0.1 μM
Protocol: as §2, §3, §4, §5

tumour cells = test: Antiproliferative effect on tumour cells, combined treatment with known antitumour agents; assay type: cell-based; conditions: with topotecan, SN38, taxol, doxorubicin and anthracyclines
Protocol: as §2, §5

Vacuolar ATPase in human osteoclastoma (hOc), sequence (P27449 whole entry, looked up): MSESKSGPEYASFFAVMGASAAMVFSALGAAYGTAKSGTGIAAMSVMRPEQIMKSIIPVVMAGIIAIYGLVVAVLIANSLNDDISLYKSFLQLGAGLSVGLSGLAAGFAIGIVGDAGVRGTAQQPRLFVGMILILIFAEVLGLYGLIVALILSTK
Vacuolar ATPase in human osteoclastoma (hOc), sequence (Q13488 whole entry, looked up): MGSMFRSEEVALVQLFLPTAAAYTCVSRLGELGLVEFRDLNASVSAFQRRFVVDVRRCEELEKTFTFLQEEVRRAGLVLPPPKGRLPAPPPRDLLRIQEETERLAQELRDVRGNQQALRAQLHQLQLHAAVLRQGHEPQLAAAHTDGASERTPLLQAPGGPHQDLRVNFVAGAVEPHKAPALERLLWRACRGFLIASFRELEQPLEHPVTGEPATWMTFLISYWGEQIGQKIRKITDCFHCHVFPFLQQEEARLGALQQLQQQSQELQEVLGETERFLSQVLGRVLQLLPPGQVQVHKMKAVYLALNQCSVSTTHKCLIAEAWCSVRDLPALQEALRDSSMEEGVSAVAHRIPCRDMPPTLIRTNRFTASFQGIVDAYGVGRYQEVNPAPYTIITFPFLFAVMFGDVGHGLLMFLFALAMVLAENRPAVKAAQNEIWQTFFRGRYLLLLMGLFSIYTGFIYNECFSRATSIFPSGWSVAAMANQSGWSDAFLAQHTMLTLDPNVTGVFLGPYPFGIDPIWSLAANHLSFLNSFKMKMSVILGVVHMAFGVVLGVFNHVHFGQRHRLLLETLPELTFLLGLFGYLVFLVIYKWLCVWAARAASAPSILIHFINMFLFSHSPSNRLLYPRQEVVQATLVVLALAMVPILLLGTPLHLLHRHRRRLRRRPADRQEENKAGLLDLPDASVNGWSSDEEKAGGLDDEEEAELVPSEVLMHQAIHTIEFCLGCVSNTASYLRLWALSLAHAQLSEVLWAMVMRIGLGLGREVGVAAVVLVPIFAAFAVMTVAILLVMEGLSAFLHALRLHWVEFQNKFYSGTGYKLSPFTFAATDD
Vacuolar ATPase in bovine chromaffin cells membranes (BCG), sequence (P23956 whole entry, looked up): as the sequence (P27449 whole entry, looked up) above, with S4A, S6N, Q51M, D83G, K88R counted along it
Vacuolar ATPase in bovine chromaffin cells membranes (BCG), sequence (Q29466 whole entry, looked up): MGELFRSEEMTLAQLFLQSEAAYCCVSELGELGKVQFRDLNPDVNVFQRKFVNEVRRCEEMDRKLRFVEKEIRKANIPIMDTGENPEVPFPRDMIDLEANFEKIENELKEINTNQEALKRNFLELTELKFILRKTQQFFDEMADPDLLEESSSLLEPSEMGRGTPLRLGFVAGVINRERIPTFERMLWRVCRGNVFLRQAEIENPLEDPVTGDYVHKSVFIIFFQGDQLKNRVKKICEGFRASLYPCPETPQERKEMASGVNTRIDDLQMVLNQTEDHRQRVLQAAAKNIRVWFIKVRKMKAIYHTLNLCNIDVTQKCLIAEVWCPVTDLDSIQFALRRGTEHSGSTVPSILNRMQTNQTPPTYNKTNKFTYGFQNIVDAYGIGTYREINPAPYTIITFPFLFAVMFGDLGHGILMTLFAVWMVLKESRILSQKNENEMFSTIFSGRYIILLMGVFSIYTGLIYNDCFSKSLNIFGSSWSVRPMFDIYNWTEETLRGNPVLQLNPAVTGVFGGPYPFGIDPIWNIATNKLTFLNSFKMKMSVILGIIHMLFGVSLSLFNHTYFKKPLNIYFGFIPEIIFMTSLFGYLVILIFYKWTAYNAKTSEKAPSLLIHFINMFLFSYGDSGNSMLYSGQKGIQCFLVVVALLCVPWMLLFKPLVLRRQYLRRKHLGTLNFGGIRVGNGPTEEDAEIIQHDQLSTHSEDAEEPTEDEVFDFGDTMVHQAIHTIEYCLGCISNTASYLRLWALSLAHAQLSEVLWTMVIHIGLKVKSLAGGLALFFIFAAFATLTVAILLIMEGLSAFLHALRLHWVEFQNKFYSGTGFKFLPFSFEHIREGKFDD

Structure (SMILES): COC(=O)c1[nH]c2cc(OC)c(OC)cc2c1-c1ccc(OC)cc1 [Example 1, 5,6-Dimethoxy-3-(4-methoxy-phenyl)-1H-indole-2-carboxylic acid methyl ester]
- IC50 [1]: 0.5 µM
- IC50 [2]: 0.644 µM
- IC50 (HT29 cells [3]; HT-29, HT29, after 72 hours of treatment, range stated for the group, read-out: IC50 values in the sensitive line): 5 to 42 µM
- IC50 (HT29 cells [3]; HT-29, 72 h treatment, read-out: Antiproliferative activity (IC50 ± S.D.) HT-29 72 h treatment): 14.4 ± 2.1 µM
- IC50 (HepG2 cells): 24.4 ± 7.9 µM
- effect of combination with topotecan (Combination Index according to Kern) (HT29 cells [4]): clear synergistic effect
- effect of co-treatment with topotecan (HT29/Mit cells): synergism; also recorded: clear synergistic effect
- effect in combination with cytotoxic agents (tumour cells): marked synergistic effects
